Measured values reported in ChEMBL document CHEMBL1135152, “Design, synthesis, and SAR of monobenzamidines and aminoisoquinolines as factor Xa inhibitors” (Bioorg Med Chem Lett, 2002).

Experiments:
[1] = Bioavailability in rat; format: ADME, organism-based; settings: in vivo
[2] = target: T1, Coagulation factor X (Homo sapiens, UniProt P00742); assay: Tested in vitro for the inhibitory activity against Coagulation factor Xa
[3] = target: Vitamin K-dependent protein C (Homo sapiens, UniProt P04070); assay: Tested in vitro for the inhibitory activity against activated protein C (APC)
Chain of Vitamin K-dependent protein C (P04070 43-197 limits assumed): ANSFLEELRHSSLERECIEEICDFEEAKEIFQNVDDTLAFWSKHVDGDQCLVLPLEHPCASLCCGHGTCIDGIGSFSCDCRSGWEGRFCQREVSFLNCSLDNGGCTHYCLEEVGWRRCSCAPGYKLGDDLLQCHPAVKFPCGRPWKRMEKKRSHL
Chain of Vitamin K-dependent protein C (P04070 212-461 limits assumed): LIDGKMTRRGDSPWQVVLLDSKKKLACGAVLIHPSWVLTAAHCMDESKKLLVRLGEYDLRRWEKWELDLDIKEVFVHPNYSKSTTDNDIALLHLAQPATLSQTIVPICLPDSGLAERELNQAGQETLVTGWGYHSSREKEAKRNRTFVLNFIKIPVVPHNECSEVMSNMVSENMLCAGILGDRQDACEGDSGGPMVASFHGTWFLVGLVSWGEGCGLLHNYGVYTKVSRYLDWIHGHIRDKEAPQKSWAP

[4] = target: Serine protease 1 (Homo sapiens, UniProt P07477); assay: Tested in vitro for the inhibitory activity against trypsin
Chain of Serine protease 1 (P07477 whole entry): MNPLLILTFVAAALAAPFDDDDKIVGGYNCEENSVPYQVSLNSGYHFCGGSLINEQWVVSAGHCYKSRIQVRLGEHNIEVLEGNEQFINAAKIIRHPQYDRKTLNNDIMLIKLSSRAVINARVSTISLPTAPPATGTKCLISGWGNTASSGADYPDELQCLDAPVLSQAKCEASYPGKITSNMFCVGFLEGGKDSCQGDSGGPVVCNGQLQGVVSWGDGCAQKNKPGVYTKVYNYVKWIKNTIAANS

[5] = target: Tissue-type plasminogen activator (Homo sapiens, UniProt P00750); assay: Tested in vitro for the inhibitory activity against Tissue plasminogen activator (tissue plasminogen activator)
Chain of Tissue-type plasminogen activator (P00750 whole entry): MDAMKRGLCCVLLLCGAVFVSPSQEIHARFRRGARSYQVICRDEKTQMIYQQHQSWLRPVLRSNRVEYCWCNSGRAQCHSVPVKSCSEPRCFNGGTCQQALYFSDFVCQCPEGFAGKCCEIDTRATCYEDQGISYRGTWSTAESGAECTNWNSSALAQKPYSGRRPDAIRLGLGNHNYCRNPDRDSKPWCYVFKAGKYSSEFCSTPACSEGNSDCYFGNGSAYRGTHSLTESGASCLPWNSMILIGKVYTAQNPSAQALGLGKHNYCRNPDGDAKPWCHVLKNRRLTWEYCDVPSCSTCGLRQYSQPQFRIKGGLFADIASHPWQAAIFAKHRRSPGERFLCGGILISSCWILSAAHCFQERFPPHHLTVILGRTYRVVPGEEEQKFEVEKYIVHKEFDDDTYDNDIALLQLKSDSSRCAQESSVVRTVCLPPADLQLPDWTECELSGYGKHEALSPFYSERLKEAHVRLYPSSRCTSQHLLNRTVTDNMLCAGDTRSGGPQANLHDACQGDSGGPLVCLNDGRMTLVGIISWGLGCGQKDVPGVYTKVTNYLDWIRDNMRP

[6] = system: Oryctolagus cuniculus; assay: Tested for inhibition of thrombosis in rabbit deep vein model after intravenous administration at dosage of 2 mg/kg; format: functional
[7] = target: Plasminogen (Homo sapiens, UniProt P00747); assay: Tested in vitro for the inhibitory activity against plasmin
Chain of Plasminogen (P00747 97-580 limits assumed): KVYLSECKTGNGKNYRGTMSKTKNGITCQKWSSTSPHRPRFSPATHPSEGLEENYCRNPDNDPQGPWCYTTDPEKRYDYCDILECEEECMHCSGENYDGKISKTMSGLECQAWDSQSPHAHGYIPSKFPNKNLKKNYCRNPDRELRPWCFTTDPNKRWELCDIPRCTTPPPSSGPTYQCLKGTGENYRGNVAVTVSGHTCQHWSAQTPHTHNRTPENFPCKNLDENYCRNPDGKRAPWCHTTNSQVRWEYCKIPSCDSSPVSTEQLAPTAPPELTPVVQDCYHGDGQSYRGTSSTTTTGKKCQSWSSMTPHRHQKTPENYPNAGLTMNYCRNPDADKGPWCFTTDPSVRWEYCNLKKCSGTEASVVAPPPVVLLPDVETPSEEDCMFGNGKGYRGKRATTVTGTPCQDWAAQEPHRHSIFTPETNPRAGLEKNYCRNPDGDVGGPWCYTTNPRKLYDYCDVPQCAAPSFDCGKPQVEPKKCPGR
Chain of Plasminogen (P00747 581-810 limits assumed): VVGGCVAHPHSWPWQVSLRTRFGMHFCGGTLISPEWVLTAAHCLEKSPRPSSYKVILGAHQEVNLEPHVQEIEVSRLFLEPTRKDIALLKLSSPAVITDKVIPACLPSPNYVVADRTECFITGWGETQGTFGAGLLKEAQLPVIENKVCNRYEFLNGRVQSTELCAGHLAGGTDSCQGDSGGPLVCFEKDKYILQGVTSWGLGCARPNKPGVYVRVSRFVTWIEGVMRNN

[8] = target: Kallikrein-1 (Homo sapiens, UniProt P06870); assay: Tested in vitro for the inhibitory activity against kallikrein
Chain of Kallikrein-1 (P06870 whole entry): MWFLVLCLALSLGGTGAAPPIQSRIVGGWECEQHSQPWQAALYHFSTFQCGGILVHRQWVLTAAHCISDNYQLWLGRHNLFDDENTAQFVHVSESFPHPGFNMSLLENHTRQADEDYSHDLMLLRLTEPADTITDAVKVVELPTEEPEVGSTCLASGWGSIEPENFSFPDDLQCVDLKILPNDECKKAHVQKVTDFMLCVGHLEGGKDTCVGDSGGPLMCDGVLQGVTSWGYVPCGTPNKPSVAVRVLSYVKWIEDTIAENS

[9] = target: Prothrombin (Homo sapiens, UniProt P00734); assay: Tested in vitro for the inhibitory activity against thrombin
[10] = target: T1, Coagulation factor X; assay: Tested in vitro for the inhibitory activity against Coagulation factor X
[11] = Bioavailability in rat was reported at the dose of 6 mg/kg in 25% PEG-300; format: ADME, organism-based; settings: in vivo

T1 sequence (P00742 41-179 limits assumed): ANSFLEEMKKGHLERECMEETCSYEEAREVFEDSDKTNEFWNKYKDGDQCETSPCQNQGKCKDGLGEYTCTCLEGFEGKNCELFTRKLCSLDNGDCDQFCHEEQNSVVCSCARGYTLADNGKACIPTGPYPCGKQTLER
T1 sequence (P00742 235-488 limits assumed): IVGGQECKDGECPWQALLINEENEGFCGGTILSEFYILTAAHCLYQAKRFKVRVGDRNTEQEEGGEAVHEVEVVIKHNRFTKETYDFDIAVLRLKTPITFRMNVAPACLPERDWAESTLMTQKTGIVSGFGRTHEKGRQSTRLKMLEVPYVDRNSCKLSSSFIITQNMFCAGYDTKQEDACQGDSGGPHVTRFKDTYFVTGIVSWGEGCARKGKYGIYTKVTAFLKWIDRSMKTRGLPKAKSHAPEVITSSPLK

Q: For N=C(N)c1cccc(Oc2ccc(C(=O)O)cc2NC(=O)c2ccc(-c3ccccc3S(N)(=O)=O)cc2)c1, which bioavailability [1] is on record?
A: 5.5%

Q: Which IC50 [2] does the source give for N=C(N)c1cccc(Oc2ccc(Cl)cc2C(=O)Nc2ccc(-c3ccccc3S(N)(=O)=O)cc2)c1 here?
A: 7.7 nM

Q: With N=C(N)c1cccc(Oc2cc(Br)ccc2NC(=O)c2ccc(-c3ccccc3S(N)(=O)=O)cc2)c1 as the molecule, how does the IC50 [2] read?
A: 2.1 nM

Q: Which IC50 [2] does the source give for CC(=O)Nc1ccc(Oc2cccc(C(=N)N)c2)c(C(=O)Nc2ccc(-c3ccccc3S(N)(=O)=O)cc2)c1 here?
A: 7.7 nM

Q: With N=C(N)c1cccc(OCCN(Cc2ccoc2)C(=O)c2ccc(-c3ccccc3S(N)(=O)=O)cc2)c1 as the molecule, how does the IC50 [2] read?
A: 7.8 nM

Q: With Nc1nccc2ccc(OCC(c3ccccc3)N3Cc4cc(-c5ccccc5S(N)(=O)=O)ccc4C3=O)cc12 (stereo not given) as the molecule, how does the IC50 [2] read?
A: 623 nM

Q: With Nc1nccc2ccc(OCC(Cc3ccccc3)N3Cc4cc(-c5ccccc5S(N)(=O)=O)ccc4C3=O)cc12 (stereo not given) as the molecule, how does the IC50 [2] read?
A: 226 nM

Q: For N=C(N)c1cccc(OCCN(Cc2ccccc2)C(=O)c2ccc(-c3ccccc3S(N)(=O)=O)cc2)c1, which IC50 [2] is on record?
A: 14 nM

Q: With N=C(N)c1cccc(Oc2ccccc2NC(=O)c2ccc(-c3ccccc3S(N)(=O)=O)cc2)c1 as the molecule, how does the IC50 [3] read?
A: > 181 µM

Q: And the IC50 [4]?
A: 970 nM

Q: What about the IC50 [2] of the same molecule?
A: 3.6 nM

Q: And the IC50 [5]?
A: 18 µM

Q: What about the inhibition in vivo at 2 mg/kg [6] of the same molecule?
A: 41%

Q: What about the IC50 [7] of the same molecule?
A: 43 µM

Q: What about the IC50 [8] of the same molecule?
A: 250 nM

Q: What about the IC50 [9] of the same molecule?
A: > 11 µM

Q: Which IC50 [2] does the source give for N=C(N)c1cccc(Oc2cc([N+](=O)[O-])ccc2C(=O)Nc2ccc(-c3ccccc3S(N)(=O)=O)cc2)c1 here?
A: 4.8 nM

Q: And the bioavailability [1]?
A: 0.3%

Q: With N=C(N)c1cccc(Oc2cc(N)ccc2C(=O)Nc2ccc(-c3ccccc3S(N)(=O)=O)cc2)c1 as the molecule, how does the IC50 [2] read?
A: 19 nM

Q: With N=C(N)c1cccc(OCC(NC(=O)c2ccc(-c3ccccc3S(N)(=O)=O)cc2)c2ccccc2)c1 (stereo not given) as the molecule, how does the IC50 [2] read?
A: 3.4 nM

Q: With N=C(N)c1cccc(Oc2ccc(Br)cc2C(=O)Nc2ccc(-c3ccccc3S(N)(=O)=O)cc2)c1 as the molecule, how does the IC50 [2] read?
A: 4.4 nM

Q: Which IC50 [2] does the source give for N=C(N)c1cccc(Oc2ccccc2C(=O)Nc2ccc(-c3ccccc3S(N)(=O)=O)cc2)c1 here?
A: 7.3 nM

Q: For N=C(N)c1cccc(OCC(Cc2ccccc2)NC(=O)c2ccc(-c3ccccc3S(N)(=O)=O)cc2)c1 (stereo not given), which IC50 [2] is on record?
A: 5.6 nM

Q: Which results are given for N=C(N)c1cccc(OCCNC(=O)c2ccc(-c3ccccc3S(N)(=O)=O)cc2)c1?
A: IC50 [3]: 3.7 µM; IC50 [4]: 1200 nM; IC50 [2]: 7.5 nM; IC50 [5]: 109 µM; IC50 [7]: 13 µM; IC50 [8]: 2100 nM; IC50 [9]: 321 µM

Q: With Nc1nccc2ccc(Oc3ccc(F)cc3NC(=O)c3ccc(-c4ccccc4S(N)(=O)=O)cc3)cc12 as the molecule, how does the IC50 [2] read?
A: 1320 nM

Q: Which IC50 [2] does the source give for N=C(N)c1cccc(OCCN2Cc3cc(-c4ccccc4S(N)(=O)=O)ccc3C2=O)c1 here?
A: 3.6 nM

Q: With N=C(N)c1cccc(Oc2cc(Br)ccc2C(=O)Nc2ccc(-c3ccccc3S(N)(=O)=O)cc2)c1 as the molecule, how does the IC50 [2] read?
A: 1.2 nM

Q: With N=C(N)c1cccc(Oc2cc(Cl)ccc2C(=O)Nc2ccc(-c3ccccc3S(N)(=O)=O)cc2)c1 as the molecule, how does the IC50 [2] read?
A: 1.5 nM

Q: With COc1ccc(NC(=O)c2ccc(-c3ccccc3S(N)(=O)=O)cc2)c(Oc2cccc(C(=N)N)c2)c1 as the molecule, how does the IC50 [2] read?
A: 1.6 nM

Q: With Cc1ccc(NC(=O)c2ccc(-c3ccccc3S(N)(=O)=O)cc2)c(Oc2cccc(C(=N)N)c2)c1 as the molecule, how does the IC50 [2] read?
A: 9.9 nM

Q: Which IC50 [2] does the source give for CC(COc1ccc2ccnc(N)c2c1)N1Cc2cc(-c3ccccc3S(N)(=O)=O)ccc2C1=O (stereo not given) here?
A: 25 nM

Q: For CN(C)c1ccc(Oc2cccc(C(=N)N)c2)c(C(=O)Nc2ccc(-c3ccccc3S(N)(=O)=O)cc2)c1, which IC50 [2] is on record?
A: 10 nM

Q: Which IC50 [10] does the source give for N=C(N)c1cccc(Oc2ccc([N+](=O)[O-])cc2C(=O)Nc2ccc(-c3ccccc3S(N)(=O)=O)cc2)c1 here?
A: 1.9 nM

Q: With N=C(N)c1cccc(Oc2ccc(C(F)(F)F)cc2NC(=O)c2ccc(-c3ccccc3S(N)(=O)=O)cc2)c1 as the molecule, how does the IC50 [2] read?
A: 2.5 nM

Q: Which IC50 [2] does the source give for N=C(N)c1cccc(Oc2ccc(N)cc2C(=O)Nc2ccc(-c3ccccc3S(N)(=O)=O)cc2)c1 here?
A: 12 nM

Q: Which IC50 [2] does the source give for N=C(N)c1cccc(Oc2ccc(Br)cc2NC(=O)c2ccc(-c3ccccc3S(N)(=O)=O)cc2)c1 here?
A: 1.6 nM

Q: For CS(=O)(=O)c1ccc(Oc2ccc3ccnc(N)c3c2)c(NC(=O)c2ccc(-c3ccccc3S(N)(=O)=O)cc2)c1, which IC50 [2] is on record?
A: 6060 nM

Q: Which IC50 [2] does the source give for CC(=O)Nc1ccc(C(=O)Nc2ccc(-c3ccccc3S(N)(=O)=O)cc2)c(Oc2cccc(C(=N)N)c2)c1 here?
A: 61 nM

Q: What does the source list for Nc1nccc2ccc(OCCN3Cc4cc(-c5ccccc5S(N)(=O)=O)ccc4C3=O)cc12?
A: bioavailability [11]: < 5%; IC50 [2]: 22 nM

Q: With CS(=O)(=O)Nc1ccc(Oc2cccc(C(=N)N)c2)c(C(=O)Nc2ccc(-c3ccccc3S(N)(=O)=O)cc2)c1 as the molecule, how does the IC50 [2] read?
A: 5.4 nM

Q: Which IC50 [2] does the source give for N=C(N)c1cccc(OCCN(CC(=O)O)C(=O)c2ccc(-c3ccccc3S(N)(=O)=O)cc2)c1 here?
A: 34 nM

Q: For CC(COc1cccc(C(=N)N)c1)NC(=O)c1ccc(-c2ccccc2S(N)(=O)=O)cc1 (stereo not given), which IC50 [2] is on record?
A: 16 nM

Q: Which IC50 [2] does the source give for Nc1nccc2ccc(Oc3ccc(C(F)(F)F)cc3NC(=O)c3ccc(-c4ccccc4S(N)(=O)=O)cc3)cc12 here?
A: 1810 nM

Q: With N=C(N)c1cccc(OCCN(Cc2cccnc2)C(=O)c2ccc(-c3ccccc3S(N)(=O)=O)cc2)c1 as the molecule, how does the IC50 [2] read?
A: 11 nM

Q: Which IC50 [2] does the source give for N=C(N)c1cccc(Oc2cc(Cl)ccc2NC(=O)c2ccc(-c3ccccc3S(N)(=O)=O)cc2)c1 here?
A: 1.6 nM

Q: With N=C(N)c1cccc(Oc2ccc(F)cc2NC(=O)c2ccc(-c3ccccc3S(N)(=O)=O)cc2)c1 as the molecule, how does the IC50 [2] read?
A: 4.5 nM

Q: For N=C(N)c1cccc(Oc2cc(O)ccc2NC(=O)c2ccc(-c3ccccc3S(N)(=O)=O)cc2)c1, which IC50 [2] is on record?
A: 3.9 nM

Q: With Nc1nccc2ccc(Oc3ccccc3NC(=O)c3ccc(-c4ccccc4S(N)(=O)=O)cc3)cc12 as the molecule, how does the IC50 [2] read?
A: 646 nM

Q: Which IC50 [2] does the source give for COC(=O)CN(CCOc1cccc(C(=N)N)c1)C(=O)c1ccc(-c2ccccc2S(N)(=O)=O)cc1 here?
A: 13 nM

Q: With CN(C)c1ccc(C(=O)Nc2ccc(-c3ccccc3S(N)(=O)=O)cc2)c(Oc2cccc(C(=N)N)c2)c1 as the molecule, how does the IC50 [2] read?
A: 16 nM

Q: For COC(=O)c1ccc(Oc2cccc(C(=N)N)c2)c(NC(=O)c2ccc(-c3ccccc3S(N)(=O)=O)cc2)c1, which IC50 [2] is on record?
A: 2.5 nM

Q: With CNc1ccc(C(=O)Nc2ccc(-c3ccccc3S(N)(=O)=O)cc2)c(Oc2cccc(C(=N)N)c2)c1 as the molecule, how does the IC50 [2] read?
A: 12 nM

Q: For CS(=O)(=O)c1ccc(Oc2cccc(C(=N)N)c2)c(NC(=O)c2ccc(-c3ccccc3S(N)(=O)=O)cc2)c1, which IC50 [2] is on record?
A: 1.8 nM
